Key:
pigweed = assay: Test B pre-/postemergence herbicide test; format: in vivo, Amaranthus retroflexus; settings: for Plant response rating, Pigweed: preemergence; for Pigweed plant response rating: postemergence, visual rating, scale 0 (no effect) to 100 (complete control)
Procedure, shortened: (§1)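 Seeds were planted and treated preemergence with compounds formulated in a non-phytotoxic solvent mixture containing surfactant, while plants at the 1- to 4-leaf stage (2 to 18 cm) received postemergence sprays. Flooded paddy plants were grown to the 2-leaf stage. After 13 to 15 days in a greenhouse, injury was visually rated 0–100 against untreated controls.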

Surinam grass = assay: Test B pre-/postemergence herbicide test; format: in vivo, Urochloa decumbens; settings: for Plant response rating, Surinam Grass: preemergence; for Surinam Grass plant response rating: postemergence, visual rating, scale 0 (no effect) to 100 (complete control)
Procedure, shortened: as §1

[1] = system: small flower umbrella sedge; assay: Test B flooded paddy test; format: in vivo, Cyperus difformis; settings: 1000 g ai/ha, visual rating, scale 0 to 100 (0 no effect, 100 complete control), 13 to 15 days
Procedure, shortened: (§2)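 Postemergence plants were sprayed with formulated test chemicals at 2 to 18 cm height (1- to 4-leaf stage); paddy species were grown to the 2-leaf stage. After 13 to 15 days in a greenhouse, injury was rated visually against untreated controls on a 0–100 scale (0 = no effect, 100 = complete control).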

lambsquarters = assay: Test B pre-/postemergence herbicide test; format: in vivo, Chenopodium album; settings: for Plant response rating, Lambsquarters: preemergence; for Lambsquarters plant response rating: postemergence, visual rating, scale 0 (no effect) to 100 (complete control)
Procedure, shortened: as §1

wild oat = assay: Test B postemergence herbicide test; format: in vivo, Avena fatua; settings: postemergence, visual rating, scale 0 (no effect) to 100 (complete control)
Procedure, shortened: (§3)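 Each value is a visual 0–100 response rating taken against controls 13 to 15 days after treatment in the greenhouse. Plants received formulated chemical postemergence at the 1- to 4-leaf stage or, in flooded paddy, at the 2-leaf stage.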

rice = assay: Test B flooded paddy test; format: in vivo, Oryza sativa; settings: 1000 g ai/ha, visual rating, scale 0 to 100 (0 no effect, 100 complete control), 13 to 15 days
Procedure, shortened: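 Visual ratings, 0 (no effect) to 100 (complete control), made versus controls after 13–15 d greenhouse. Paddy plants treated at 2-leaf stage; postemergence plants at 1- to 4-leaf stage, 2–18 cm tall.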

morningglory = assay: Test B pre-/postemergence herbicide test; format: in vivo, Ipomoea coccinea; settings: for Plant response rating, Morningglory: preemergence; for Morningglory plant response rating: postemergence, visual rating, scale 0 (no effect) to 100 (complete control)
Procedure, shortened: as §1

blackgrass = assay: Test B postemergence herbicide test; format: in vivo, Alopecurus myosuroides; settings: postemergence, visual rating, scale 0 (no effect) to 100 (complete control)
Procedure, shortened: as §2

corn = assay: Test B pre-/postemergence herbicide test; format: in vivo, Zea mays; settings: for Plant response rating, Corn: preemergence; for Corn plant response rating: postemergence, visual rating, scale 0 (no effect) to 100 (complete control)
Procedure, shortened: as §1

barnyardgrass [2] = assay: Test B flooded paddy test; format: in vivo, Echinochloa crus-galli; settings: 1000 g ai/ha, visual rating, scale 0 to 100 (0 no effect, 100 complete control), 13 to 15 days
Procedure, shortened: as §2

barnyardgrass [3] = assay: Test B pre-/postemergence herbicide test; format: in vivo, Echinochloa crus-galli; settings: for Plant response rating, Barnyardgrass: preemergence; for Barnyardgrass plant response rating: postemergence, visual rating, scale 0 (no effect) to 100 (complete control)
Procedure, shortened: as §1

giant foxtail = assay: Test B pre-/postemergence herbicide test; format: in vivo, Setaria faberi; settings: for Plant response rating, Foxtail, Giant: preemergence; for Foxtail, Giant plant response rating: postemergence, visual rating, scale 0 (no effect) to 100 (complete control)
Procedure, shortened: as §1

large crabgrass = assay: Test B pre-/postemergence herbicide test; format: in vivo, Digitaria sanguinalis; settings: for Plant response rating, Crabgrass, Large: preemergence; for Crabgrass, Large plant response rating: postemergence, visual rating, scale 0 (no effect) to 100 (complete control)
Procedure, shortened: as §1

wheat = assay: Test B postemergence herbicide test; format: in vivo, Triticum aestivum; design: key to Wheat plant response rating: 0 = no effect, 100 = complete control; settings: postemergence, visual rating, scale 0 (no effect) to 100 (complete control)
Procedure, shortened: as §3

ducksalad = assay: Test B flooded paddy test; format: in vivo, Heteranthera limosa; settings: 1000 g ai/ha, visual rating, scale 0 to 100 (0 no effect, 100 complete control), 13 to 15 days
Procedure, shortened: as §2

cocklebur = assay: Test B pre-/postemergence herbicide test; format: in vivo, Xanthium strumarium; settings: for Plant response rating, Cocklebur: preemergence; for Cocklebur plant response rating: postemergence, visual rating, scale 0 (no effect) to 100 (complete control)
Procedure, shortened: as §1

[4] = 500 g ai/ha, visual rating 0-100, 0 no effect, 100 complete control
[5] = 125 g ai/ha, 0 to 100 scale, 0 is no effect, 100 is complete control

C=Cn1nc(C(C)(C)C)cc1C(=O)Nc1cccc(C(C)=O)c1 [Compound 127]
100: Sedge, Umbrella plant response rating [1] | Plant response rating, Crabgrass, Large (large crabgrass; [4])
30: Pigweed plant response rating (pigweed; 125 g ai/ha) | Foxtail, Giant plant response rating (giant foxtail; 500 g ai/ha) | Plant response rating, Foxtail, Giant (giant foxtail; [5]) | Crabgrass, Large plant response rating (large crabgrass; 500 g ai/ha)
10: Surinam Grass plant response rating (Surinam grass; 125 g ai/ha) | Surinam Grass plant response rating (Surinam grass; 500 g ai/ha) | Oat, Wild plant response rating (wild oat; 125 g ai/ha) | Oat, Wild plant response rating (wild oat; 500 g ai/ha) | Blackgrass plant response rating (blackgrass; 125 g ai/ha) | Blackgrass plant response rating (blackgrass; 500 g ai/ha) | Barnyardgrass plant response rating (barnyardgrass [3]; 125 g ai/ha) | Wheat plant response rating (wheat; 500 g ai/ha) | Cocklebur plant response rating (cocklebur; 125 g ai/ha) | Plant response rating, Cocklebur (cocklebur; [5])
40: Plant response rating, Pigweed (pigweed; [5])
80: Lambsquarters plant response rating (lambsquarters; 500 g ai/ha) | Cocklebur plant response rating (cocklebur; 500 g ai/ha)
90: Plant response rating, Crabgrass, Large (large crabgrass; [5]) | Ducksalad plant response rating (ducksalad)
60: Pigweed plant response rating (pigweed; 500 g ai/ha) | Plant response rating, Surinam Grass (Surinam grass; [4])
70: Plant response rating, Pigweed (pigweed; [4]) | Plant response rating, Lambsquarters (lambsquarters; [4]) | Lambsquarters plant response rating (lambsquarters; 125 g ai/ha) | Plant response rating, Barnyardgrass (barnyardgrass [3]; [4]) | Plant response rating, Foxtail, Giant (giant foxtail; [4])
0: Plant response rating, Lambsquarters (lambsquarters; [5]) | Plant response rating, Morningglory (morningglory; [5]) | Plant response rating, Corn (corn; [4]) | Plant response rating, Corn (corn; [5]) | Wheat plant response rating (wheat; 125 g ai/ha)
20: Barnyardgrass plant response rating (barnyardgrass [3]; 500 g ai/ha) | Plant response rating, Barnyardgrass (barnyardgrass [3]; [5]) | Foxtail, Giant plant response rating (giant foxtail; 125 g ai/ha) | Crabgrass, Large plant response rating (large crabgrass; 125 g ai/ha) | Plant response rating, Cocklebur (cocklebur; [4])
50: Plant response rating, Surinam Grass (Surinam grass; [5]) | Rice plant response rating (rice) | Barnyardgrass plant response rating (barnyardgrass [2])

CCn1nc(C(C)(C)C)cc1C(=O)Nc1cccc(SC(F)(F)F)c1 [Compound 130]
20: Plant response rating, Pigweed (pigweed; [5]) | Blackgrass plant response rating (blackgrass; 125 g ai/ha) | Plant response rating, Corn (corn; [4]) | Corn plant response rating (corn; 125 g ai/ha) | Foxtail, Giant plant response rating (giant foxtail; 125 g ai/ha) | Plant response rating, Foxtail, Giant (giant foxtail; [5]) | Wheat plant response rating (wheat; 125 g ai/ha)
70: Plant response rating, Lambsquarters (lambsquarters; [4]) | Plant response rating, Barnyardgrass (barnyardgrass [3]; [4]) | Plant response rating, Foxtail, Giant (giant foxtail; [4]) | Crabgrass, Large plant response rating (large crabgrass; 125 g ai/ha)
60: Plant response rating, Surinam Grass (Surinam grass; [5]) | Oat, Wild plant response rating (wild oat; 500 g ai/ha) | Blackgrass plant response rating (blackgrass; 500 g ai/ha) | Foxtail, Giant plant response rating (giant foxtail; 500 g ai/ha)
100: Plant response rating, Pigweed (pigweed; [4]) | Pigweed plant response rating (pigweed; 125 g ai/ha) | Pigweed plant response rating (pigweed; 500 g ai/ha) | Lambsquarters plant response rating (lambsquarters; 500 g ai/ha) | Morningglory plant response rating (morningglory; 125 g ai/ha) | Morningglory plant response rating (morningglory; 500 g ai/ha) | Plant response rating, Crabgrass, Large (large crabgrass; [4]) | Cocklebur plant response rating (cocklebur; 125 g ai/ha) | Cocklebur plant response rating (cocklebur; 500 g ai/ha)
40: Oat, Wild plant response rating (wild oat; 125 g ai/ha) | Corn plant response rating (corn; 500 g ai/ha) | Barnyardgrass plant response rating (barnyardgrass [2]) | Wheat plant response rating (wheat; 500 g ai/ha)
90: Surinam Grass plant response rating (Surinam grass; 500 g ai/ha) | Lambsquarters plant response rating (lambsquarters; 125 g ai/ha) | Crabgrass, Large plant response rating (large crabgrass; 500 g ai/ha) | Plant response rating, Crabgrass, Large (large crabgrass; [5])
10: Plant response rating, Morningglory (morningglory; [4]) | Plant response rating, Morningglory (morningglory; [5]) | Plant response rating, Corn (corn; [5]) | Plant response rating, Barnyardgrass (barnyardgrass [3]; [5]) | Ducksalad plant response rating (ducksalad)
0: Sedge, Umbrella plant response rating [1] | Plant response rating, Lambsquarters (lambsquarters; [5]) | Rice plant response rating (rice) | Plant response rating, Cocklebur (cocklebur; [4]) | Plant response rating, Cocklebur (cocklebur; [5])
80: Plant response rating, Surinam Grass (Surinam grass; [4]) | Barnyardgrass plant response rating (barnyardgrass [3]; 500 g ai/ha)
50: Surinam Grass plant response rating (Surinam grass; 125 g ai/ha) | Barnyardgrass plant response rating (barnyardgrass [3]; 125 g ai/ha)

CCn1nc(C(C)(C)C)cc1C(=O)Nc1cccc(SC)c1 [Compound 131]
100: Plant response rating, Pigweed (pigweed; [4]) | Plant response rating, Pigweed (pigweed; [5]) | Plant response rating, Lambsquarters (lambsquarters; [4]) | Plant response rating, Lambsquarters (lambsquarters; [5]) | Plant response rating, Crabgrass, Large (large crabgrass; [4]) | Cocklebur plant response rating (cocklebur; 500 g ai/ha)
10: Plant response rating, Surinam Grass (Surinam grass; [5]) | Plant response rating, Morningglory (morningglory; [5]) | Blackgrass plant response rating (blackgrass; 125 g ai/ha) | Barnyardgrass plant response rating (barnyardgrass [3]; 125 g ai/ha) | Plant response rating, Foxtail, Giant (giant foxtail; [5]) | Wheat plant response rating (wheat; 125 g ai/ha) | Plant response rating, Cocklebur (cocklebur; [4])
30: Pigweed plant response rating (pigweed; 125 g ai/ha) | Plant response rating, Morningglory (morningglory; [4]) | Foxtail, Giant plant response rating (giant foxtail; 500 g ai/ha) | Crabgrass, Large plant response rating (large crabgrass; 500 g ai/ha)
50: Barnyardgrass plant response rating (barnyardgrass [3]; 500 g ai/ha) | Plant response rating, Crabgrass, Large (large crabgrass; [5])
20: Surinam Grass plant response rating (Surinam grass; 125 g ai/ha) | Oat, Wild plant response rating (wild oat; 125 g ai/ha) | Oat, Wild plant response rating (wild oat; 500 g ai/ha) | Morningglory plant response rating (morningglory; 125 g ai/ha) | Blackgrass plant response rating (blackgrass; 500 g ai/ha) | Corn plant response rating (corn; 125 g ai/ha) | Corn plant response rating (corn; 500 g ai/ha) | Foxtail, Giant plant response rating (giant foxtail; 125 g ai/ha) | Crabgrass, Large plant response rating (large crabgrass; 125 g ai/ha) | Wheat plant response rating (wheat; 500 g ai/ha)
60: Pigweed plant response rating (pigweed; 500 g ai/ha) | Plant response rating, Surinam Grass (Surinam grass; [4]) | Surinam Grass plant response rating (Surinam grass; 500 g ai/ha) | Rice plant response rating (rice) | Morningglory plant response rating (morningglory; 500 g ai/ha)
0: Plant response rating, Corn (corn; [4]) | Plant response rating, Corn (corn; [5]) | Plant response rating, Cocklebur (cocklebur; [5])
90: Lambsquarters plant response rating (lambsquarters; 500 g ai/ha) | Plant response rating, Barnyardgrass (barnyardgrass [3]; [4])
80: Sedge, Umbrella plant response rating [1] | Lambsquarters plant response rating (lambsquarters; 125 g ai/ha) | Ducksalad plant response rating (ducksalad)
70: Barnyardgrass plant response rating (barnyardgrass [2]) | Plant response rating, Barnyardgrass (barnyardgrass [3]; [5]) | Plant response rating, Foxtail, Giant (giant foxtail; [4]) | Cocklebur plant response rating (cocklebur; 125 g ai/ha)

Source: US20060069132A1, “Azolecarboxamide herbicides” (priority 2004, published 2006)
